Literature values in US4181708A, “Rumen-stable pellets” (Eastman Kodak Company, priority 1978, dated 1980).
Read-outs that look alike come from different tables or passages of the source.

Settings: for Solubility: water

Q: Which “pH of saturated solution” value does the source give for `CSCCC(N)C(=O)O` (racemic) [DL - Methionine] here?
A: 5.7

Q: Which “pH of saturated solution” value does the source give for `CC(N)C(=O)O` (racemic) [DL - Alanine] here?
A: 6.2

Q: For `NC(=O)C[C@H](N)C(=O)O` [L - Asparagine], which “pH of saturated solution” value is on record?
A: 4.7

Q: What about the Solubility of the same compound?
A: 3.1 g./100 g. water

Q: Which “pH of saturated solution” value does the source give for `N[C@@H](CS)C(=O)O` [L(-) - Cysteine] here?
A: 3.7

Q: And the Solubility?
A: 0.01 g./100 g. water

Q: Which “pH of saturated solution” value does the source give for `N[C@@H](Cc1ccc(O)cc1)C(=O)O` [L(-) - Tyrosine] here?
A: 7.3

Q: What does the source list for `NC(Cc1ccccc1)C(=O)O` (racemic) [DL - Phenylalanine]?
A: Solubility (at 25° C.): 3.0 g./100 g. water; pH of saturated solution: 5.6

Q: For `CC(C)C[C@H](N)C(=O)O` [L(-) - Lencine], which Solubility (at 25° C.) is on record?
A: 2.0 g./100 g. water

Q: With `N=C(N)NCCC[C@H](N)C(=O)O` [L - Arginine] as the compound, how does the “pH of saturated solution” value read?
A: 11.8
